Tests used:
Type in all cases: cell-based
[1] = system: Colletotrichum lindemuthianum; test: in vitro-Test with Colletotrichum lindemuthianum (microtiter growth inhibition); details: for inhibition of growth at 0.2 ppm: applied alone at 0.2 ppm
Experimental: (§1) The degree of efficacy expressed in % is denoted: 0% means an efficacy, which corresponds to that of the control, while an efficacy of 100% means that no disease is observed.
(§2) If the actual fungicidal activity exceeds the calculated value, then the activity of the combination is super-additive, i.e. a synergistic effect exists. In this case, the efficacy, which was actually observed, must be greater than the value for the expected efficacy (E), that was calculated from the abovementioned formula.
(§3) Example: In Vitro-Test with Fungal Microorganisms
(§4) Wells of 96-well microtiter plates are filled with 10 μl of a preparation of test compound or compound combination in methanol+emulsifier alkylaryl-polyglycol-ether. Thereafter, the solvent is evaporated in a hood. At the next step, 100 μl of liquid potato dextrose medium is given into each well, that has been amended with an appropriate concentration of spores or mycelium suspension of the test fungus.
(§5) With the aid of a photometer, the extinction in all wells is measured at the wavelength of 620 nm.
(§6) The microtiter plates are incubated at 20° C. and 85% relative humidity. The inhibition of growth is determined again photometrically 3-5 days after the application. Efficacy is calculated in relation to the untreated control, 0% efficacy means fungal growth as high as in untreated control while 100% efficacy means no fungal growth is measured.

[2] = system: Parastagonospora nodorum; test: in vitro-Test with Parastagonospora nodorum (microtiter growth inhibition); details: compound alone
Experimental: as §1, §2, §3, §4, §5, §6

[3] = system: Botrytis cinerea; test: in vitro-Test with Botrytis cinerea (microtiter growth inhibition); details: for inhibition of growth at 0.04 ppm: single active at 0.04 ppm; for inhibition of growth at 0.2 ppm: single active at 0.2 ppm
Procedure, shortened: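 Steps: dry the compound (methanol with alkylaryl-polyglycol-ether) in each well; add potato dextrose liquid medium containing fungal spores or mycelium; record 620 nm extinction; incubate at 20° C. and 85% relative humidity; re-measure photometrically after 3-5 days. Efficacy in % against untreated wells.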

[4] = Colletotrichum lindemuthianum, read-out: Efficacy %
[5] = Parastagonospora nodorum, read-out: Efficacy %
[6] = Parastagonospora nodorum, 0.2 ppm, read-out: Efficacy %
[7] = Botrytis cinerea, read-out: Efficacy %

SMILES: OC(Cc1ccccc1Cl)(Cn1nc[nH]c1=S)C1(Cl)CC1 (stereo not drawn) [(1.018) prothioconazole]
- inhibition of growth at 0.2 ppm [1, 4]: 73%
- inhibition of growth at 0.008 ppm ([2]; Parastagonospora nodorum, 0.008 ppm, read-out: Efficacy %): 28%
- inhibition of growth at 0.04 ppm [2, 5]: 91%
- inhibition of growth at 0.2 ppm [2, 6]: 99%
- inhibition of growth at 1 ppm [2, 5]: 100%
- Efficacy % ([2]; 0.2 ppm): 99%
- inhibition of growth at 0.04 ppm [3, 7]: 63%
- inhibition of growth at 0.2 ppm [3, 7]: 100%

SMILES: CC(C)(C)C(O)(CCc1ccc(Cl)cc1)Cn1cncn1 (stereo not drawn) [(1.021) tebuconazole]
- inhibition of growth at 0.008 ppm ([1]; Colletotrichum lindemuthianum, applied alone at 0.008 ppm, read-out: Efficacy %): 7%
- inhibition of growth at 0.04 ppm ([1]; Colletotrichum lindemuthianum, applied alone at 0.04 ppm, read-out: Efficacy %): 20%
- inhibition of growth at 0.2 ppm [1, 4]: 2%
- inhibition of growth at 1 ppm ([1]; Colletotrichum lindemuthianum, applied alone at 1.0 ppm, read-out: Efficacy %): 28%
- inhibition of growth at 0.04 ppm [2, 5]: 10%
- inhibition of growth at 0.2 ppm [2, 6]: 79%
- inhibition of growth at 1 ppm [2, 5]: 98%
- inhibition of growth at 0.008 ppm ([3]; Botrytis cinerea, single active at 0.008 ppm, read-out: Efficacy %): 2%
- inhibition of growth at 0.04 ppm [3, 7]: 5%
- inhibition of growth at 0.2 ppm [3, 7]: 39%

SMILES: O=C(NCCc1ncc(C(F)(F)F)cc1Cl)c1ccccc1C(F)(F)F [(2.005) fluopyram]
- inhibition of growth at 0.8 ppm ([1]; Colletotrichum lindemuthianum, applied alone at 0.8 ppm, read-out: Efficacy %): 14%
- inhibition of growth at 4 ppm ([1]; Colletotrichum lindemuthianum, applied alone at 4 ppm, read-out: Efficacy %): 7%
- inhibition of growth at 20 ppm ([1]; Colletotrichum lindemuthianum, applied alone at 20 ppm, read-out: Efficacy %): 19%
- inhibition of growth at 0.8 ppm ([2]; Parastagonospora nodorum, 0.8 ppm, read-out: Efficacy %): 32%
- inhibition of growth at 4 ppm ([2]; Parastagonospora nodorum, 4 ppm, read-out: Efficacy %): 41%
- inhibition of growth at 20 ppm ([2]; Parastagonospora nodorum, 20 ppm, read-out: Efficacy %): 65%
- inhibition of growth at 0.8 ppm ([3]; Botrytis cinerea, single active at 0.8 ppm, read-out: Efficacy %): 66%
- inhibition of growth at 4 ppm ([3]; Botrytis cinerea, single active at 4 ppm, read-out: Efficacy %): 64%

SMILES: N#Cc1ccccc1NC(=O)c1snc(Cl)c1Cl [(6.002) isotianil]
- Efficacy % ([1]; applied alone at 0.8 ppm): 7%
- Efficacy % ([1]; applied alone at 4 ppm): 19%
- Efficacy % ([1]; applied alone at 20 ppm): 0%
- Efficacy % ([1]; applied alone at 100 ppm): 17%
- Efficacy % ([3]; single active at 4 ppm): 0%
- Efficacy % ([3]; single active at 20 ppm): 0%
- Efficacy % ([3]; single active at 100 ppm): 0%

— patent US20230165252A1, “ACTIVE COMPOUND COMBINATIONS” (Bayer Aktiengesellschaft, priority 2020, published 2023)
